Experiments:
Type in all cases: physicochemical
[1] = Drying temperature conditions: transformation of the crystal form under vacuum drying; details: for Crystal form: vacuum 0.1˜1.0 Torr
Description: Form A prepared by Example 3 was treated with various drying temperatures and drying times under the vacuum condition of 0.1˜1.0 Torr, and the resulting trans-formation of the crystal form is represented in Table 1.

[2] = Stability test (HPLC content and decomposition products, 5° C. and accelerated condition over 6 months)
Description: The novel Forms A and B of Examples 3 and 11 of the present invention, and 50 mg of the authentic adefovir dipivosil (purity: 99.5%) were precisely weighed into a 50 mL volumetric flask and dissolved in diluent. After making up to the mark, they were used as sample solution and standard solution, respectively. Analysis was carried out according to the following conditions, so that the contents of the novel Forms A and B, and the amounts of decomposition products of adefovir dipivoxil formed were calculated by the peak areas. The changes in the contents of novel crystal forms and the amounts of decomposition products were measured under 5° C. and accelerated condition over 6 months.
Instrument: Waters HPLC model 2695
Column: Allech Mixed Mode Anion exchange C8, 7 um 100 A pore size, 250 mm×4.6 mm
Mobile phase mixing condition was operated as follows: For 19 min, mobile phase A was changed from 100% to 0%, and mobile phase B was changed from 0% to 100%. After elution with mobile phase B 100% till 36 min, the elution was changed from mobile phase A 0% to 100% till 46 min.
Mobile phase A: buffer/acetonitrile (70:30, v/v)
Mobile phase B: buffer/acetonitrile (50:50, v/v)
Buffer: 9.2 g of K2HPO4 and 47.2 g of KH2PO4 were dissolved in 2 L of purified water
Diluent: 3.4 g of KH2PO4 was dissolved in 1 L of purified water and adjusted to pH 3.0
Detector wave length: 260 nm

[3] = Dissolution test of formulations; details: for Dissolution rate (%): formulation per Example 1 of WO00/35460, average of 3
Description: Using the novel Form B prepared in Example 11 of the present invention and the Form I prepared in Example 1 of WO99/04774 as raw materials, each formulation was manufactured by the technique disclosed in Example 1 of WO00/35460. Dissolution rates were compared in 0.01N HCl solution, pH 1.2 buffer solution (NaCl 20 g+37% HCl 68˜70 mL+distilled water 9 L), pH 4.0 buffer solution (sodium acetate 7.38 g+acetic acid 25 mL+distilled water 9 L), pH 6.0 buffer solution (KH2PO4 68 g+NaOH+distilled water 10 L) and pH 7 distilled water. Experiments were repeated 3 times for each case, and the average values are represented in Table 4.

[4] = drying time 10 h, drying temperature 40° C.
[5] = Accelerated (25° C., 60% RH), 0 month
[6] = Accelerated (25° C., 60% RH), 1 month
[7] = Accelerated (25° C., 60% RH), 3 months
[8] = Accelerated (25° C., 60% RH), 6 months

## CC(C)(C)C(=O)OCOP(=O)(COCCN1C=NC2C(N)=NC=NC21)OCOC(=O)C(C)(C)C (single isomer, unassigned) [Form A, 9-[2-[phosphonomethoxy]ethyl]adenine bis-pivaloyloxymethyl ester]
[1]; dried at 35 to 45° C.
  Transformation of the crystal form: transformed from Form A to Form B
[1]; drying time 10 h, drying temperature 25° C.
  Crystal form: Form A (2 hydrate)
[1]; drying time 10 h, drying temperature 35° C.
  Crystal form: Form B
[1]; [4]
  Crystal form: Form B
[1]; drying time 10 h, drying temperature 42° C.
  Crystal form: Form B
[1]; drying time 10 h, drying temperature 45° C.
  Crystal form: Form B
[1]; drying time 10 h, drying temperature 50° C.
  Crystal form: Mixture of Form B +
[1]; drying time 48 h, drying temperature 25° C.
  Crystal form: Form A (2 hydrate)
[1]; vacuum dried at 25° C.
  Transformation of the crystal form: not transformed to other crystal forms
[2]; 5° C., 0 month
  Content: 100.26%
  Total amount of decomposition product: 0.27%
[2]; 5° C., 1 month
  Content: 99.45%
  Total amount of decomposition product: 0.25%
[2]; 5° C., 3 months
  Content: 100.43%
  Total amount of decomposition product: 0.25%
[2]; 5° C., 6 months
  Content: 100.2%
  Total amount of decomposition product: 0.32%
[2]; [5]
  Content: 100.26%
  Total amount of decomposition product: 0.27%
[2]; [6]
  Content: 99.68%
  Total amount of decomposition product: 0.38%
[2]; [7]
  Content: 99.50%
  Total amount of decomposition product: 0.43%
[2]; [8]
  Content: 100.06%
  Total amount of decomposition product: 0.60%

## CC(C)(C)C(=O)OCOP(=O)(COCCN1C=NC2C(N)=NC=NC21)OCOC(=O)C(C)(C)C (single isomer, unassigned) [Form B, 9-[2-[phosphonomethoxy]ethyl]adenine bis-pivaloyloxymethyl ester]
[2]; 5° C., 0 month
  Content: 100.48%
  Total amount of decomposition product: 0.38%
[2]; 5° C., 1 month
  Content: 100.34%
  Total amount of decomposition product: 0.31%
[2]; 5° C., 3 months
  Content: 99.18%
  Total amount of decomposition product: 0.36%
[2]; 5° C., 6 months
  Content: 99.74%
  Total amount of decomposition product: 0.43%
[2]; [5]
  Content: 100.48%
  Total amount of decomposition product: 0.38%
[2]; [6]
  Content: 98.85%
  Total amount of decomposition product: 0.42%
[2]; [7]
  Content: 100.25%
  Total amount of decomposition product: 0.50%
[2]; [8]
  Content: 99.32%
  Total amount of decomposition product: 0.66%
[3]; 0.01N HCl, 5 min
  Dissolution rate (%): 85.25%
[3]; 0.01N HCl, 10 min
  Dissolution rate (%): 97.19%
[3]; 0.01N HCl, 15 min
  Dissolution rate (%): 99.65%
[3]; 0.01N HCl, 30 min
  Dissolution rate (%): 101.12%
[3]; distilled water (pH 7), 5 min
  Dissolution rate (%): 83.57%
[3]; distilled water (pH 7), 10 min
  Dissolution rate (%): 96.96%
[3]; distilled water (pH 7), 15 min
  Dissolution rate (%): 98.73%
[3]; distilled water (pH 7), 30 min
  Dissolution rate (%): 98.96%
[3]; pH 1.2 buffer, 5 min
  Dissolution rate (%): 93.77%
[3]; pH 1.2 buffer, 10 min
  Dissolution rate (%): 101.06%
[3]; pH 1.2 buffer, 15 min
  Dissolution rate (%): 102.03%
[3]; pH 1.2 buffer, 30 min
  Dissolution rate (%): 101.71%
[3]; pH 4.0 buffer, 5 min
  Dissolution rate (%): 87.18%
[3]; pH 4.0 buffer, 10 min
  Dissolution rate (%): 96.99%
[3]; pH 4.0 buffer, 15 min
  Dissolution rate (%): 98.21%
[3]; pH 4.0 buffer, 30 min
  Dissolution rate (%): 98.98%
[3]; pH 6.0 buffer, 5 min
  Dissolution rate (%): 88.62%
[3]; pH 6.0 buffer, 10 min
  Dissolution rate (%): 95.33%
[3]; pH 6.0 buffer, 15 min
  Dissolution rate (%): 98.01%
[3]; pH 6.0 buffer, 30 min
  Dissolution rate (%): 100.32%
[3]; formulations, summary of Table 4
  Dissolution rate compared with the formulation utilizing the existing Form I: superior

## CC(C)(C)C(=O)OCOP(=O)(COCCN1C=NC2C(N)=NC=NC21)OCOC(=O)C(C)(C)C (single isomer, unassigned) [Form I, 9-[2-[phosphonomethoxy]ethyl]adenine bis-pivaloyloxymethyl ester, reference compound]
[1]; dried at 35 to 45° C.
  Transformation of the crystal form: not transformed to Form B
[1]; [4]
  Crystal form: Form I
[1]; drying time 20 h, drying temperature 40° C.
  Crystal form: Form I
[3]; 0.01N HCl, 5 min
  Dissolution rate (%): 88.11%
[3]; 0.01N HCl, 10 min
  Dissolution rate (%): 93.32%
[3]; 0.01N HCl, 15 min
  Dissolution rate (%): 95.48%
[3]; 0.01N HCl, 30 min
  Dissolution rate (%): 98.17%
[3]; distilled water (pH 7), 5 min
  Dissolution rate (%): 70.92%
[3]; distilled water (pH 7), 10 min
  Dissolution rate (%): 83.19%
[3]; distilled water (pH 7), 15 min
  Dissolution rate (%): 88.58%
[3]; distilled water (pH 7), 30 min
  Dissolution rate (%): 94.85%
[3]; pH 1.2 buffer, 5 min
  Dissolution rate (%): 95.24%
[3]; pH 1.2 buffer, 10 min
  Dissolution rate (%): 100.90%
[3]; pH 1.2 buffer, 15 min
  Dissolution rate (%): 101.38%
[3]; pH 1.2 buffer, 30 min
  Dissolution rate (%): 101.61%
[3]; pH 4.0 buffer, 5 min
  Dissolution rate (%): 83.38%
[3]; pH 4.0 buffer, 10 min
  Dissolution rate (%): 88.07%
[3]; pH 4.0 buffer, 15 min
  Dissolution rate (%): 89.76%
[3]; pH 4.0 buffer, 30 min
  Dissolution rate (%): 93.00%
[3]; pH 6.0 buffer, 5 min
  Dissolution rate (%): 74.89%
[3]; pH 6.0 buffer, 10 min
  Dissolution rate (%): 89.88%
[3]; pH 6.0 buffer, 15 min
  Dissolution rate (%): 94.58%
[3]; pH 6.0 buffer, 30 min
  Dissolution rate (%): 97.38%
